According to US9096548B2, “Pyrazine amide compounds” (Boehringer Ingelheim International GmbH, priority 2013, dated 2015):
Where a name gives a salt, the structure may show the parent alone.

target: T1, ENaC (Epithelial Sodium Channel) (Mus musculus, UniProt Q61180+Q9WU38+Q9WU39); experiment: Ussing Chamber assay (short circuit current, amiloride sensitive I_SC); format: cell-based; conditions: Ussing chamber, mouse kidney M-1 cells, short circuit current, compound added to the apical solution; read-out: IC50
T1 construct: Mouse kidney M−1 cells were cultivated in DMEM; endogenous in cells; host or cells: Mouse kidney M-1 cells, cultivated with dexamethasone on transwell filters
T1 sequence (Q61180 1-699): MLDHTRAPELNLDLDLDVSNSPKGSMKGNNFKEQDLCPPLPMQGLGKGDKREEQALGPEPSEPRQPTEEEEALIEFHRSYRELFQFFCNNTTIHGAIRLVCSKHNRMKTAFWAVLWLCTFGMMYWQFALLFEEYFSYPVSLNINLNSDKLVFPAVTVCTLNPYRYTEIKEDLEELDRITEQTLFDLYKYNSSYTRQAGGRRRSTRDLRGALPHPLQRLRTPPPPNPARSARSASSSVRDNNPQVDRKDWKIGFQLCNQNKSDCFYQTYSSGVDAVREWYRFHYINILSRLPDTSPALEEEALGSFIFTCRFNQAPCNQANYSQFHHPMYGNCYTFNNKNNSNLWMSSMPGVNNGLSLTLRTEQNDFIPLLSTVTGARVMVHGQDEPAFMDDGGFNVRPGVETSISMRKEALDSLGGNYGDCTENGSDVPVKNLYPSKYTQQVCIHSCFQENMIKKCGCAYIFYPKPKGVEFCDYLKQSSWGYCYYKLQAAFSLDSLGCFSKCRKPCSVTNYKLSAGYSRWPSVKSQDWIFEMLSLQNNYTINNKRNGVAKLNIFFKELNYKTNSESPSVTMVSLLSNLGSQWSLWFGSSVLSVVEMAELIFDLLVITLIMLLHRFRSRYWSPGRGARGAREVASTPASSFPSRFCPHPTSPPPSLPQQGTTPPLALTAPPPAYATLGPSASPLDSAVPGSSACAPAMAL
T1 sequence (Q9WU38 1-638): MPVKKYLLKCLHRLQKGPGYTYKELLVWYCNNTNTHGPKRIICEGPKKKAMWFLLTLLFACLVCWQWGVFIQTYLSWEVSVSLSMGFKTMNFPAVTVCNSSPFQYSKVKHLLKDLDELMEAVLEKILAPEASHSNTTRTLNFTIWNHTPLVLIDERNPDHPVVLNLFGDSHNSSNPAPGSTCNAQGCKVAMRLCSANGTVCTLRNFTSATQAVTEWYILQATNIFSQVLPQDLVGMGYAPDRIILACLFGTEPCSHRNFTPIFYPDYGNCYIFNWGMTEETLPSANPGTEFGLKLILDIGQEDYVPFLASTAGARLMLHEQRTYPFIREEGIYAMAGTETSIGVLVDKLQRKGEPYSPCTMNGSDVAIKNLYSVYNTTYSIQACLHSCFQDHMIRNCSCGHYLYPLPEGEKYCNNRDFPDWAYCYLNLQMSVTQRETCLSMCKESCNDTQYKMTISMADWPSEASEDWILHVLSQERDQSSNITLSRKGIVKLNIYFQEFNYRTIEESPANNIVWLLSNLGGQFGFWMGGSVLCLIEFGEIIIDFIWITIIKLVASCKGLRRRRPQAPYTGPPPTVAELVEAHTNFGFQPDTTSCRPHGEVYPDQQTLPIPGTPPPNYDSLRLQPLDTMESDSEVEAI
T1 sequence (Q9WU39 1-655): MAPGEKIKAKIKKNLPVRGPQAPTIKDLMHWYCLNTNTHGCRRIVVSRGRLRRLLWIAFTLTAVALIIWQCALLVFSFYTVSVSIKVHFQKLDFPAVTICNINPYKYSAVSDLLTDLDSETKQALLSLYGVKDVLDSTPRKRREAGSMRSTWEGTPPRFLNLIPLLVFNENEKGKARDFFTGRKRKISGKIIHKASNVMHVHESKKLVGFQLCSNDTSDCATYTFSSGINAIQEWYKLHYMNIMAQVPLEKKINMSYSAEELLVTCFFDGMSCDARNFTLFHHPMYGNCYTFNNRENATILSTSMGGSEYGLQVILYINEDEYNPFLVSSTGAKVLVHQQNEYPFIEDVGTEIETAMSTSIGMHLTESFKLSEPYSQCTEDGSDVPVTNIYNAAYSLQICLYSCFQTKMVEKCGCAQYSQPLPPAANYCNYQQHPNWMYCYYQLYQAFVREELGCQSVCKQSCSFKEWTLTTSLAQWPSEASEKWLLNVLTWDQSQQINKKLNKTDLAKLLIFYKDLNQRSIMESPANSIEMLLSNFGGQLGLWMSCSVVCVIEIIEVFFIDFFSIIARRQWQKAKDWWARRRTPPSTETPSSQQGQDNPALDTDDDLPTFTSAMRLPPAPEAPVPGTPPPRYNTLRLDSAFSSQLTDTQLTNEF
In short: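 Mouse kidney M-1 cells grown 10–12 days on filters with 5 μM dexamethasone, measured in Caco-2 transport buffer at 37° C under voltage clamp. Compound applied apically at 3 μM or 1-3-10 μM; 3 μM amiloride added at end. Short circuit current inhibition given as percent of amiloride effect or IC50.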

SMILES | IC50 [µM]
COc1ccc(CCC[N@+]2(C)CCC[C@H](NC(=O)c3nc(Cl)c(N)nc3N)C2)cc1 [Example 3.1] | 0.75
CN(Cc1ccncc1)C(=O)COc1ccc(CCC[N+]2(CCCc3ccc(OCC(=O)N(C)Cc4ccncc4)cc3)CCC[C@H](NC(=O)c3nc(Cl)c(N)nc3N)C2)cc1 [Example 6.17] | 0.021
COc1ccc(CCC[N+]2(CCCc3ccc(C(=O)NCCCN(C)C)cc3)CCCC(NC(=O)c3nc(Cl)c(N)nc3N)C2)cc1 (stereo not shown) [Example 5.7] | 0.02
COc1ccc(CCC[N+](C)(CCCc2ccc(OC)cc2)[C@@H]2C[C@H]2NC(=O)c2nc(Cl)c(N)nc2N)cc1 [Example 2.1] | 0.08
Cn1cnc(CNC(=O)COc2ccc(CCC[N+]3(CCCc4ccc(OCC(=O)NCc5cn(C)cn5)cc4)CCC[C@H](NC(=O)c4nc(Cl)c(N)nc4N)C3)cc2)c1 [Example 6.40] | 0.021
Nc1nc(N)c(C(=O)N[C@H]2CCC[N+](CCCc3ccc(OCC(=O)N4CCOCC4)cc3)(CCCc3ccc(OCC(=O)N4CCOCC4)cc3)C2)nc1Cl [Example 6.58] | 0.072
CN(C)C(=O)COc1ccc(CCC[N+]2(CCCc3ccc(OCC(=O)N(C)C)cc3)CCC[C@H](NC(=O)c3nc(Cl)c(N)nc3N)C2)cc1 [Example 6.12] | 0.134
Cn1ccnc1CNC(=O)COc1ccc(CCC[N+]2(CCCc3ccc(OCC(=O)NCc4nccn4C)cc3)CCC[C@H](NC(=O)c3nc(Cl)c(N)nc3N)C2)cc1 [Example 6.33] | 0.021
CN(Cc1cccnc1)C(=O)COc1ccc(CCC[N+]2(CCCc3ccc(OCC(=O)N(C)Cc4cccnc4)cc3)CCC[C@H](NC(=O)c3nc(Cl)c(N)nc3N)C2)cc1 [Example 6.27] | 0.017
Nc1nc(N)c(C(=O)N[C@H]2CCC[N+](CCOc3ccccc3)(CCOc3ccccc3)C2)nc1Cl [Example 10.7, 3-[(3,5-Diamino-6-chloro-pyrazine-2-carbonyl)-amino]-1,1-bis-[2-phenoxy-ethyl]-piperidinium chloride] | 0.158

Second part, the compound after the results:

IC50 [µM] | SMILES
0.009 | Nc1nc(N)c(C(=O)N[C@H]2CCC[N+](CCCc3ccc(OCC(=O)NCCn4ccnc4)cc3)(CCCc3ccc(OCC(=O)NCCn4ccnc4)cc3)C2)nc1Cl [6.15]
0.094 | CN(CC#N)C(=O)COc1ccc(CCC[N+]2(CCCc3ccc(OCC(=O)N(C)CC#N)cc3)CCC[C@H](NC(=O)c3nc(Cl)c(N)nc3N)C2)cc1 [Example 6.65]
0.105 | CN(CCC#N)C(=O)COc1ccc(CCC[N+]2(CCCc3ccc(OCC(=O)N(C)CCC#N)cc3)CCC[C@H](NC(=O)c3nc(Cl)c(N)nc3N)C2)cc1 [Example 6.29]
0.055 | COc1ccc(CCC[N+]2(CCCc3ccc(C(=O)N(CCCN(C)C)CCCN(C)C)cc3)CCCC(NC(=O)c3nc(Cl)c(N)nc3N)C2)cc1 (stereo not shown) [Example 5.3]
0.06 | COc1ccc(CCC[N+]2(CCc3ccccc3)CCCC(NC(=O)c3nc(Cl)c(N)nc3N)C2)cc1 (stereo not shown) [Example 3.6]

same assay, conditions: Ussing chamber, mouse kidney M-1 cells, short circuit current; unit inferred; read-out: IC50

IC50 [µM] | SMILES
0.063 | CN(C)CCOc1ccc(CCC[N+]2(CCCc3ccc(OCCN(C)C)cc3)CCC[C@H](NC(=O)c3nc(Cl)c(N)nc3N)C2)cc1 [Example 9.5, 3-[(3,5-Diamino-6-chloro-pyrazine-2-carbonyl)-amino]-1,1-bis-{3-[4-(2-dimethylamino-ethoxy)-phenyl]-propyl}-piperidinium chloride dihydrochloride]
0.15 | COc1ccc(CCC[N+]2(CCCc3ccc(C(=O)NCCC(=O)O)cc3)CCCC(NC(=O)c3nc(Cl)c(N)nc3N)C2)cc1 (stereo not shown) [Example 5.10, 1-{3-[4-(Carboxyethyl-carbamoyl)-phenyl]-propyl}-3-[(3,5-diamino-6-chloro-pyrazine-2-carbonyl)-amino]-1-[3-(4-methoxy-phenyl)-propyl]-piperidinium chloride]
0.085 | COC(=O)COc1ccc(CCC[N+]2(CCCc3ccc(OCC(=O)NCCN(C)C)cc3)CCCC(NC(=O)c3nc(Cl)c(N)nc3N)C2)cc1 (stereo not shown) [Example 8.1, 3-[(3,5-Diamino-6-chloro-pyrazine-2-carbonyl)-amino]-1-(3-{4-[(2-dimethylaminoethylcarbamoyl)-methoxy]-phenyl}-propyl)-1-[3-(4-methoxycarbonylmethoxy-phenyl)-propyl]-piperidinium chloride hydrochloride]
1.3 | COC(=O)C[C@H](C[N+](C)(CCCc1ccc(OC)cc1)CCCc1ccc(OC)cc1)NC(=O)c1nc(Cl)c(N)nc1N [Example 7.1, {(R)-2-[(3,5-Diamino-6-chloro-pyrazine-2-carbonyl)-amino]-3-methoxycarbonyl-propyl}-bis-[3-(4-methoxy-phenyl)-propyl]-methyl-ammonium chloride]
0.03 | COc1ccc(CCC[N+](C)(CCCc2ccc(OC)cc2)CC(NC(=O)c2nc(Cl)c(N)nc2N)c2ccccc2)cc1 (stereo not shown) [Example 2, {2-[(3,5-Diamino-6-chloro-pyrazine-2-carbonyl)-amino]-2-phenyl-ethyl}-bis-[3-(4-methoxy-phenyl)-propyl]-methyl-ammonium chloride]

same assay, conditions: Ussing chamber, mouse kidney M-1 cells, short circuit current; value printed in the example text with μM; read-out: IC50

IC50 [µM] | SMILES
0.025 | COC(=O)COc1cccc(CCC[N+]2(CCCc3cccc(OCC(=O)OC)c3)CCC[C@H](NC(=O)c3nc(Cl)c(N)nc3N)C2)c1 [Example 10.10, (S)-3-[(3,5-Diamino-6-chloro-pyrazine-2-carbonyl)-amino]-1,1-bis-[3-(3-methoxycarbonylmethoxy-phenyl)-propyl]-piperidinium chloride]
0.21 | COc1ccc(CCC[N+]2(CC(=O)OC3CCCCC3)CCCC(NC(=O)c3nc(Cl)c(N)nc3N)C2)cc1 (stereo not shown) [Example 12.1, 1-Cyclohexyloxycarbonylmethyl-3-[(3,5-diamino-6-chloro-pyrazine-2-carbonyl)-amino]-1-[3-(4-methoxy-phenyl)-propyl]-piperidinium chloride]
